{
  "source": "PubChem BioAssay (NCI)",
  "test_in_all_cases": "DTP human tumour cell line panel, 48 h",
  "key": {"MDA-MB-435": {"system": "MDA-MB-435"}, "MOLT-4 leukemia": {"system": "MOLT-4 leukemia"}, "MDA-N": {"system": "MDA-N"}, "SK-MEL-2 melanoma": {"system": "SK-MEL-2 melanoma"}, "TK-10 renal": {"system": "TK-10 renal"}, "NCI-H522 lung": {"system": "NCI-H522 lung"}, "DU-145 prostate": {"system": "DU-145 prostate"}, "HS 578T breast": {"system": "HS 578T breast"}, "CAKI-1 renal": {"system": "CAKI-1 renal"}, "HT29 colon": {"system": "HT29 colon"}, "MDA-MB-231 breast": {"system": "MDA-MB-231 breast"}, "HOP-92 NSCLC": {"system": "HOP-92 NSCLC"}, "OVCAR-8 ovarian": {"system": "OVCAR-8 ovarian"}, "SK-MEL-5 melanoma": {"system": "SK-MEL-5 melanoma"}, "EKVX NSCLC": {"system": "EKVX NSCLC"}, "HCT-116 colon": {"system": "HCT-116 colon"}, "UACC-257 melanoma": {"system": "UACC-257 melanoma"}, "A549 NSCLC": {"system": "A549 NSCLC"}, "SNB-75 CNS": {"system": "SNB-75 CNS"}, "IGROV1 ovarian": {"system": "IGROV1 ovarian"}, "CCRF-CEM leukemia": {"system": "CCRF-CEM leukemia"}, "786-0 renal": {"system": "786-0 renal"}, "MALME-3M melanoma": {"system": "MALME-3M melanoma"}, "SN12C renal": {"system": "SN12C renal"}, "LOX IMVI melanoma": {"system": "LOX IMVI melanoma"}, "U251 CNS": {"system": "U251 CNS"}, "HL-60(TB) leukemia": {"system": "HL-60(TB) leukemia"}, "BT-549 breast": {"system": "BT-549 breast"}, "A498 renal": {"system": "A498 renal"}, "K-562 leukemia": {"system": "K-562 leukemia"}, "SK-MEL-28 melanoma": {"system": "SK-MEL-28 melanoma"}, "SR leukemia": {"system": "SR leukemia"}, "OVCAR-4 ovarian": {"system": "OVCAR-4 ovarian"}, "HCT-15 colon": {"system": "HCT-15 colon"}, "RPMI-8226 leukemia": {"system": "RPMI-8226 leukemia"}, "PC-3 prostate": {"system": "PC-3 prostate"}, "HOP-62 NSCLC": {"system": "HOP-62 NSCLC"}, "MCF7 breast": {"system": "MCF7 breast"}, "OVCAR-3 ovarian": {"system": "OVCAR-3 ovarian"}, "OVCAR-5 ovarian": {"system": "OVCAR-5 ovarian"}, "KM12 colon": {"system": "KM12 colon"}, "SNB-19 CNS": {"system": "SNB-19 CNS"}, "ACHN renal": {"system": "ACHN renal"}, "SF-268 CNS": {"system": "SF-268 CNS"}, "COLO 205 colon": {"system": "COLO 205 colon"}, "SF-295 CNS": {"system": "SF-295 CNS"}, "UO-31 renal": {"system": "UO-31 renal"}, "SK-OV-3 ovarian": {"system": "SK-OV-3 ovarian"}, "UACC-62 melanoma": {"system": "UACC-62 melanoma"}, "NCI-H460 lung": {"system": "NCI-H460 lung"}, "M14 melanoma": {"system": "M14 melanoma"}, "SW-620 colon": {"system": "SW-620 colon"}, "SF-539 CNS": {"system": "SF-539 CNS"}, "NCI/ADR-RES ovarian": {"system": "NCI/ADR-RES ovarian"}, "NCI-H23 lung": {"system": "NCI-H23 lung"}, "RXF 393 renal": {"system": "RXF 393 renal"}, "T-47D breast": {"system": "T-47D breast"}},
  "note": "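Test compounds were applied to cells in 96-well plates for 48 hours at 5 doses. GI50: concentration for 50% inhibition of growth. TGI: total growth inhibition.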",
  "data": [
    {"smiles": "C/C(=N\\[N+](C)(C)C)c1ccc(C)c(C)c1", "values": [
      {"measurement": "TGI", "setting": "MDA-MB-435", "value": "> 100", "unit": "µM"},
      {"measurement": "GI50", "setting": "MOLT-4 leukemia", "value": "> 100", "unit": "µM"},
      {"measurement": "TGI", "setting": "MOLT-4 leukemia", "value": "> 100", "unit": "µM"},
      {"measurement": "TGI", "setting": "MDA-N", "value": "> 100", "unit": "µM"},
      {"measurement": "TGI", "setting": "SK-MEL-2 melanoma", "value": "> 100", "unit": "µM"},
      {"measurement": "TGI", "setting": "TK-10 renal", "value": "> 100", "unit": "µM"},
      {"measurement": "TGI", "setting": "NCI-H522 lung", "value": "> 100", "unit": "µM"},
      {"measurement": "TGI", "setting": "DU-145 prostate", "value": "> 100", "unit": "µM"},
      {"measurement": "GI50", "setting": "HS 578T breast", "value": "> 100", "unit": "µM"},
      {"measurement": "TGI", "setting": "HS 578T breast", "value": "> 100", "unit": "µM"},
      {"measurement": "GI50", "setting": "CAKI-1 renal", "value": "> 100", "unit": "µM"},
      {"measurement": "TGI", "setting": "CAKI-1 renal", "value": "> 100", "unit": "µM"},
      {"measurement": "TGI", "setting": "HT29 colon", "value": "> 100", "unit": "µM"},
      {"measurement": "GI50", "setting": "MDA-MB-231 breast", "value": "> 100", "unit": "µM"},
      {"measurement": "TGI", "setting": "MDA-MB-231 breast", "value": "> 100", "unit": "µM"},
      {"measurement": "GI50", "setting": "HOP-92 NSCLC", "value": "> 100", "unit": "µM"},
      {"measurement": "TGI", "setting": "HOP-92 NSCLC", "value": "> 100", "unit": "µM"},
      {"measurement": "TGI", "setting": "OVCAR-8 ovarian", "value": "> 100", "unit": "µM"},
      {"measurement": "TGI", "setting": "SK-MEL-5 melanoma", "value": "> 100", "unit": "µM"},
      {"measurement": "TGI", "setting": "EKVX NSCLC", "value": "> 100", "unit": "µM"},
      {"measurement": "TGI", "setting": "HCT-116 colon", "value": "> 100", "unit": "µM"},
      {"measurement": "TGI", "setting": "UACC-257 melanoma", "value": 26.7, "unit": "µM"},
      {"measurement": "TGI", "setting": "A549 NSCLC", "value": "> 100", "unit": "µM"},
      {"measurement": "TGI", "setting": "SNB-75 CNS", "value": "> 100", "unit": "µM"},
      {"measurement": "TGI", "setting": "IGROV1 ovarian", "value": "> 100", "unit": "µM"},
      {"measurement": "TGI", "setting": "CCRF-CEM leukemia", "value": "> 100", "unit": "µM"},
      {"measurement": "GI50", "setting": "786-0 renal", "value": "> 100", "unit": "µM"},
      {"measurement": "TGI", "setting": "786-0 renal", "value": "> 100", "unit": "µM"},
      {"measurement": "GI50", "setting": "MALME-3M melanoma", "value": "> 100", "unit": "µM"},
      {"measurement": "TGI", "setting": "MALME-3M melanoma", "value": "> 100", "unit": "µM"},
      {"measurement": "TGI", "setting": "SN12C renal", "value": 69.7, "unit": "µM"},
      {"measurement": "GI50", "setting": "LOX IMVI melanoma", "value": "> 100", "unit": "µM"},
      {"measurement": "TGI", "setting": "LOX IMVI melanoma", "value": "> 100", "unit": "µM"},
      {"measurement": "TGI", "setting": "U251 CNS", "value": "> 100", "unit": "µM"},
      {"measurement": "TGI", "setting": "HL-60(TB) leukemia", "value": "> 100", "unit": "µM"},
      {"measurement": "TGI", "setting": "BT-549 breast", "value": "> 100", "unit": "µM"},
      {"measurement": "TGI", "setting": "A498 renal", "value": "> 100", "unit": "µM"},
      {"measurement": "TGI", "setting": "K-562 leukemia", "value": "> 100", "unit": "µM"},
      {"measurement": "GI50", "setting": "SK-MEL-28 melanoma", "value": "> 100", "unit": "µM"},
      {"measurement": "TGI", "setting": "SK-MEL-28 melanoma", "value": "> 100", "unit": "µM"},
      {"measurement": "TGI", "setting": "SR leukemia", "value": "> 100", "unit": "µM"},
      {"measurement": "TGI", "setting": "OVCAR-4 ovarian", "value": "> 100", "unit": "µM"},
      {"measurement": "GI50", "setting": "HCT-15 colon", "value": "> 100", "unit": "µM"},
      {"measurement": "TGI", "setting": "HCT-15 colon", "value": "> 100", "unit": "µM"},
      {"measurement": "TGI", "setting": "RPMI-8226 leukemia", "value": "> 100", "unit": "µM"},
      {"measurement": "TGI", "setting": "PC-3 prostate", "value": "> 100", "unit": "µM"},
      {"measurement": "GI50", "setting": "HOP-62 NSCLC", "value": "> 100", "unit": "µM"},
      {"measurement": "TGI", "setting": "HOP-62 NSCLC", "value": "> 100", "unit": "µM"},
      {"measurement": "GI50", "setting": "MCF7 breast", "value": "> 100", "unit": "µM"},
      {"measurement": "TGI", "setting": "MCF7 breast", "value": "> 100", "unit": "µM"},
      {"measurement": "TGI", "setting": "OVCAR-3 ovarian", "value": "> 100", "unit": "µM"},
      {"measurement": "TGI", "setting": "OVCAR-5 ovarian", "value": "> 100", "unit": "µM"},
      {"measurement": "TGI", "setting": "KM12 colon", "value": "> 100", "unit": "µM"},
      {"measurement": "TGI", "setting": "SNB-19 CNS", "value": "> 100", "unit": "µM"},
      {"measurement": "GI50", "setting": "ACHN renal", "value": "> 100", "unit": "µM"},
      {"measurement": "TGI", "setting": "ACHN renal", "value": "> 100", "unit": "µM"},
      {"measurement": "GI50", "setting": "SF-268 CNS", "value": "> 100", "unit": "µM"},
      {"measurement": "TGI", "setting": "SF-268 CNS", "value": "> 100", "unit": "µM"},
      {"measurement": "TGI", "setting": "COLO 205 colon", "value": 38.3, "unit": "µM"},
      {"measurement": "TGI", "setting": "SF-295 CNS", "value": "> 100", "unit": "µM"},
      {"measurement": "TGI", "setting": "UO-31 renal", "value": "> 100", "unit": "µM"},
      {"measurement": "TGI", "setting": "SK-OV-3 ovarian", "value": "> 100", "unit": "µM"},
      {"measurement": "TGI", "setting": "UACC-62 melanoma", "value": "> 100", "unit": "µM"},
      {"measurement": "TGI", "setting": "NCI-H460 lung", "value": "> 100", "unit": "µM"},
      {"measurement": "GI50", "setting": "M14 melanoma", "value": "> 100", "unit": "µM"},
      {"measurement": "TGI", "setting": "M14 melanoma", "value": "> 100", "unit": "µM"},
      {"measurement": "TGI", "setting": "SW-620 colon", "value": "> 100", "unit": "µM"},
      {"measurement": "GI50", "setting": "SF-539 CNS", "value": "> 100", "unit": "µM"},
      {"measurement": "TGI", "setting": "SF-539 CNS", "value": "> 100", "unit": "µM"},
      {"measurement": "GI50", "setting": "NCI/ADR-RES ovarian", "value": "> 100", "unit": "µM"},
      {"measurement": "TGI", "setting": "NCI/ADR-RES ovarian", "value": "> 100", "unit": "µM"},
      {"measurement": "TGI", "setting": "NCI-H23 lung", "value": "> 100", "unit": "µM"},
      {"measurement": "TGI", "setting": "RXF 393 renal", "value": "> 100", "unit": "µM"},
      {"measurement": "TGI", "setting": "T-47D breast", "value": "> 100", "unit": "µM"}
    ]}
  ]
}
